# Where a name gives a salt, the structure may show the parent alone.
# Key:
# A. calcoaceticus HNR939 = assay: Antibacterial activity, MIC by agar dilution; type: cell-based; details: Acinetobacter calcoaceticus, clinically isolated strain, gram -
# From the text: (§1) The strains employed were as follows:
# (§2) Acinetobacter calcoaceticus (A. calcoaceticus)
# A. calcoaceticus HNR916 = assay: Antibacterial activity, MIC by agar dilution; type: cell-based; details: Acinetobacter calcoaceticus, clinically isolated strain, gram -
# From the text: as §1, §2
# A. calcoaceticus HNR904 = assay: Antibacterial activity, MIC by agar dilution; type: cell-based; details: Acinetobacter calcoaceticus, clinically isolated strain, gram -
# From the text: as §1, §2
# S. marcescens HNR1792 = assay: Antibacterial activity, MIC by agar dilution; type: cell-based; details: Serratia marcescens, clinically isolated strain, gram -
# From the text: as §1
# (§3) Serratia marcescens (S. marcescens)
# S. marcescens HNR1544 = assay: Antibacterial activity, MIC by agar dilution; type: cell-based; details: Serratia marcescens, clinically isolated strain, gram -
# From the text: as §1, §3
# S. marcescens HNR1767 = assay: Antibacterial activity, MIC by agar dilution; type: cell-based; details: Serratia marcescens, clinically isolated strain, gram -
# From the text: as §1, §3
# S. marcescens IAM 1184 = assay: Antibacterial activity, MIC by agar dilution; type: cell-based; details: Serratia marcescens, IAM1184; laboratory standard strain, gram -
# From the text: as §1, §3
# K. pneumoniae PCI-602 = assay: Antibacterial activity, MIC by agar dilution; type: cell-based; details: Klebsiella pneumoniae, PCI602; laboratory standard strain, gram -
# From the text: as §1
# (§4) Klebsiella pneumoniae (K. pneumoniae)
# K. pneumoniae HNR828 = assay: Antibacterial activity, MIC by agar dilution; type: cell-based; details: Klebsiella pneumoniae, clinically isolated strain, gram -
# From the text: as §1, §4
# K. pneumoniae HNR858 = assay: Antibacterial activity, MIC by agar dilution; type: cell-based; details: Klebsiella pneumoniae, clinically isolated strain, gram -
# From the text: as §1, §4
# K. pneumoniae HNR869 = assay: Antibacterial activity, MIC by agar dilution; type: cell-based; details: Klebsiella pneumoniae, clinically isolated strain, gram -
# From the text: as §1, §4
# S. aureus HPC308 = assay: Antibacterial activity, MIC by agar dilution; type: cell-based; details: Staphylococcus aureus, clinically isolated strain, gram +
# From the text: as §1
# (§5) Staphylococcus aureus (S. aureus)
# S. aureus HPC292 = assay: Antibacterial activity, MIC by agar dilution; type: cell-based; details: Staphylococcus aureus, clinically isolated strain, gram +
# From the text: as §1, §5
# S. aureus FDA 209P JC-1 = assay: Antibacterial activity, MIC by agar dilution; type: cell-based; details: Staphylococcus aureus, FDA209P; laboratory standard strain, gram +
# From the text: as §1, §5
# S. aureus HPC527 = assay: Antibacterial activity, MIC by agar dilution; type: cell-based; details: Staphylococcus aureus, clinically isolated strain, gram +
# From the text: as §1, §5
# E. cloacae HNR1939 = assay: Antibacterial activity, MIC by agar dilution; type: cell-based; details: Enterobacter cloacae, clinically isolated strain, gram -
# From the text: as §1
# (§6) Enterobacter cloacae (E. cloacae)
# E. cloacae 963 = assay: Antibacterial activity, MIC by agar dilution; type: cell-based; details: Enterobacter cloacae, laboratory standard strain, gram -
# From the text: as §1, §6
# E. cloacae HNR1941 = assay: Antibacterial activity, MIC by agar dilution; type: cell-based; details: Enterobacter cloacae, clinically isolated strain, gram -
# From the text: as §1, §6
# E. cloacae HNR1946 = assay: Antibacterial activity, MIC by agar dilution; type: cell-based; details: Enterobacter cloacae, clinically isolated strain, gram -
# From the text: as §1, §6
# E. coli NIHJ JC-2 = assay: Antibacterial activity, MIC by agar dilution; type: cell-based; details: Escherichia coli, NIHJJC2; laboratory standard strain, gram -
# From the text: as §1
# Escherichia coli (E. coli)
# E. faecalis HPC984 = assay: Antibacterial activity, MIC by agar dilution; type: cell-based; details: Enterococcus faecalis, clinically isolated strain, gram +
# From the text: as §1
# (§7) Enterococcus faecalis (E. faecalis)
# E. faecalis HPC975 = assay: Antibacterial activity, MIC by agar dilution; type: cell-based; details: Enterococcus faecalis, clinically isolated strain, gram +
# From the text: as §1, §7
# E. faecalis HPC948 = assay: Antibacterial activity, MIC by agar dilution; type: cell-based; details: Enterococcus faecalis, clinically isolated strain, gram +
# From the text: as §1, §7
# Male Hartley guinea pigs = type: in vivo; details: 10 mg/kg i.v.; for Phototoxicity: number of animals with erythemas/number of animals tested: UVA 90 minutes, 24 h after irradiation
# Procedure: Male Hartley guinea pigs were intravenously administered test compounds at a dose of 10 mg/kg, and immediately exposed to UVA on their backs for 90 minutes.
# Male Wistar rats = assay: Convulsions, intracerebroventricular (i.c.v.) administration with fenbufen; type: in vivo, rat; details: 20 μg i.c.v.; for Convulsions i.c.v.: number of animals with convulsions/number of animals tested: fenbufen 50 mg/kg i.p.
# Procedure: Male Wistar rats weighing 180-220 g were anesthetized with sodium pentobarbital (45 mg/kg, i.p.) and fixed in a stereotaxic apparatus. For the intracerebroventricular injection, a 0.6 mm diameter stainless steel guide cannula was implanted in each rat, being positioned 1.5 mm above the left lateral cerebroventricle (A: 6.2, R: 1.0, H: +1.0), according to the atlas of De Groot (1959). The guide cannula was fixed with dental cement on the skull and it was closed with a 0.3 mm diameter stainless steel stylet. To prevent infection, 10,000 units of potassium penicillin G were injected intramuscularly. The rats were allowed a few days to recover from the surgery.
# For the measurement of convulsions, 30 min after intraperitoneal injection of 50 mg/kg of fenbufen, 20 μg of the test compounds was given through a 0.3 mm diameter of stainless steel cannula with a polyethylene catheter, which was 1.5 mm longer than the guide cannula in order to be inserted into the […] cerebroventricle (H: +1.0). […] The position of the intracerebroventricular cannula was confirmed by the injection of 10 μl of 1% evans blue followed by sectioning of the brain of each rat which had been used in the experiment.
# male ICR mice = assay: Convulsions, intraperitoneal (i.p.) administration with fenbufen; details: for Convulsions i.p.: number of animals with convulsions/number of animals tested: 100 mg/kg i.p., fenbufen 100 mg/kg orally
# Procedure: Thirty minutes later, they were injected intraperitoneally with the test compounds at a dose of 100 mg/kg. Thereafter, the onset of convulsions was recorded.
# CHL cells = assay: Chromosomal aberration test with a Chinese hamster lung cell line (CHL); type: cell-based; details: for Chromosomal aberration: 3 μg/ml
# Procedure: The chromosomal aberration test was conducted with a Chinese hamster lung cell line (CHL). 2-(2-Furyl)-3-(5-nitro-2-furyl)acrylamide was used as a positive control. Cells treated with the test compounds were cultured for 6 h at 37° C. in 5% CO2 -humidified air. Following the 6 h treatment the cells were washed. Fresh medium was added to the washed cells and they were cultured for a further 18 h. Colcemide was added to the cultures 2 h before the fixation of chromosome preparation, in order to collect metaphase cells.
# [1] = tested on: polychromatic erythrocytes (PCEs); assay: Micronucleus test, bone marrow of mice; type: in vivo, BDF 1 mice; details: percent of the number of MNPCEs per 1,000 PCEs; 250 mg/kg i.p., 24 h
# Procedure: Nine-week-old male BDF 1 mice were used in this test. The test compounds were injected intraperitoneally with a dose of 250 mg/kg. After 24 h mice were sacrificed and the bone marrow of the femur was collected. Bone marrow smears were fixed on the slides with methanol and stained with Giemsa according to the usual method. For each animal, the number of micronucleated polychromatic erythrocytes (MNPCEs) per 1,000 polychromatic erythrocytes (PCEs) was counted under the microscope. Cyclophosphamide was used as a positive control.
Structure (SMILES),MIC (A. calcoaceticus HNR939),MIC (A. calcoaceticus HNR916),MIC (A. calcoaceticus HNR904),MIC (S. marcescens HNR1792),MIC (S. marcescens HNR1544),MIC (S. marcescens HNR1767),MIC (S. marcescens IAM 1184),MIC (K. pneumoniae PCI-602),MIC (K. pneumoniae HNR828),MIC (K. pneumoniae HNR858),MIC (K. pneumoniae HNR869),MIC (S. aureus HPC308),MIC (S. aureus HPC292),MIC (S. aureus FDA 209P JC-1),MIC (S. aureus HPC527),MIC (E. cloacae HNR1939),MIC (E. cloacae 963),MIC (E. cloacae HNR1941),MIC (E. cloacae HNR1946),MIC (E. coli NIHJ JC-2),further results
"Cc1c(N2C[C@@H](N)[C@@H](C)C2)c(F)c(N)c2c(=O)c(C(=O)O)cn(C3CC3)c12 (relative stereo) [Example 14, 5-Amino-7-(cis-3-amino-4-methyl-1-pyrrolidinyl)-1-cyclopropyl-6-fluoro-1,4-dihydro-8-methyl-4-oxoquinoline-3-carboxylic acid]",0.2 µg/mL,0.025 µg/mL,3.13 µg/mL,3.13 µg/mL,0.05 µg/mL,6.25 µg/mL,0.2 µg/mL,0.006 µg/mL,3.13 µg/mL,0.2 µg/mL,1.56 µg/mL,0.39 µg/mL,1.56 µg/mL,0.012 µg/mL,0.012 µg/mL,0.2 µg/mL,0.05 µg/mL,6.25 µg/mL,0.2 µg/mL,0.012 µg/mL,MIC (E. faecalis HPC984): 0.2 µg/mL; MIC (E. faecalis HPC975): 1.56 µg/mL; MIC (E. faecalis HPC948): 0.39 µg/mL; Phototoxicity: number of animals with erythemas/number of animals tested (Male Hartley guinea pigs): 0/5
"O=C(O)c1cn(C2CC2)c2cc(N3CCNCC3)c(F)cc2c1=O [Ciprofloxacin, ciprofloxacin]",–,–,–,–,–,–,–,–,–,–,–,–,–,–,–,–,–,–,–,–,"Convulsions i.c.v.: number of animals with convulsions/number of animals tested (Male Wistar rats): 3/3; Convulsions i.p.: number of animals with convulsions/number of animals tested (male ICR mice): 3/6; Frequency of chromosomal aberration (CHL cells; Table 5-A, CHL cells, 100 μg/ml): - (<10%)"
"O=P1(N(CCCl)CCCl)NCCCO1 (stereo not shown) [Cyclophosphamide, reference compound]",–,–,–,–,–,–,–,–,–,–,–,–,–,–,–,–,–,–,–,–,Incidence of MNPCEs [1]: 2.9%
"Cc1c(N2C[C@@H](N)C(C)(C)C2)c(F)c(N)c2c(=O)c(C(=O)O)cn(C3CC3)c12 [Example 16, 5-Amino-7-((S)-3-amino-4,4-dimethyl-1-pyrrolidinyl)-1-cyclopropyl-6-fluoro-1,4-dihydro-8-methyl-4-oxoquinoline-3-carboxylic acid]",0.39 µg/mL,0.025 µg/mL,6.25 µg/mL,6.25 µg/mL,0.1 µg/mL,25 µg/mL,0.39 µg/mL,0.003 µg/mL,12.5 µg/mL,0.39 µg/mL,3.13 µg/mL,0.39 µg/mL,1.56 µg/mL,0.025 µg/mL,0.025 µg/mL,0.39 µg/mL,0.05 µg/mL,12.5 µg/mL,0.39 µg/mL,0.05 µg/mL,MIC (E. faecalis HPC984): 0.2 µg/mL; MIC (E. faecalis HPC975): 1.56 µg/mL; MIC (E. faecalis HPC948): 0.39 µg/mL
"Cc1c(N2CCC(C)(N)C2)c(F)c(N)c2c(=O)c(C(=O)O)cn(C3CC3)c12 (stereo not shown) [Example 18, 5-Amino-7-(3-amino-3-methyl-1-pyrrolidinyl)-1-cyclopropyl-6-fluoro-1,4-dihydro-8-methyl-4-oxoquinoline-3-carboxylic acid]",0.78 µg/mL,0.05 µg/mL,12.5 µg/mL,3.13 µg/mL,0.1 µg/mL,25 µg/mL,0.2 µg/mL,0.006 µg/mL,6.25 µg/mL,0.39 µg/mL,3.13 µg/mL,0.78 µg/mL,6.25 µg/mL,0.025 µg/mL,0.05 µg/mL,0.39 µg/mL,0.05 µg/mL,12.5 µg/mL,0.39 µg/mL,0.025 µg/mL,MIC (E. faecalis HPC984): 0.2 µg/mL; MIC (E. faecalis HPC975): 3.13 µg/mL; MIC (E. faecalis HPC948): 0.78 µg/mL
"Cl.Nc1c(F)c(N2C[C@@H](N)C3(CC3)C2)cc2c1c(=O)c(C(=O)O)cn2C1CC1 [Reference Compound B, 5-amino-7-((S)-7-amino-5-azaspiro[2.4]hept-5-yl)-1-cyclopropyl-6-fluoro-1,4-dihydro-4-oxoquinoline-3-carboxylic acid hydrochloride]",–,–,–,–,–,–,–,–,–,–,–,–,–,–,–,–,–,–,–,–,"Convulsions i.p.: number of animals with convulsions/number of animals tested (male ICR mice): 0/6; Chromosomal aberration (CHL cells; Table 1, CHL cells): + (10-20%); Chromosomal aberration (CHL cells; Table 2, CHL cells): + (10-20%); Chromosomal aberration (CHL cells; Table 3, CHL cells): + (10-20%); Chromosomal aberration (CHL cells; Table 7, CHL cells): + (10-20%); toxicity (chromosomal aberration), in words (CHL cells; comparison to Tables 7 and 8): observed; death of CHL cells (CHL cells; treatment with 100 μg/ml): all cells died; phototoxicity, in words (Male Hartley guinea pigs; UVA): observed; Phototoxicity: number of animals with erythemas/number of animals tested (Male Hartley guinea pigs): 3/5"
"Cc1c(N2CCNCC2)c(F)c(N)c2c(=O)c(C(=O)O)cn(C3CC3)c12 [Reference Compound I, 5-amino-1-cyclopropyl-6-fluoro-1,4-dihydro-8-methyl-4-oxo-7-piperazinylquinoline-3-carboxylic acid hydrochloride]",–,–,–,–,–,–,–,–,–,–,–,–,–,–,–,–,–,–,–,–,"convulsions i.c.v., in words (Male Wistar rats; fenbufen): observed; Convulsions i.c.v.: number of animals with convulsions/number of animals tested (Male Wistar rats): 3/3; Convulsions i.p.: number of animals with convulsions/number of animals tested (male ICR mice): 0/6; symptom of sedation (male ICR mice; i.p. convulsion test): All of mice used for the test had a symptom of sedation; Phototoxicity: number of animals with erythemas/number of animals tested (Male Hartley guinea pigs): 0/5"
